Our source for the activity coefficient values is the NIST ThermoML archive (doi:10.1016/j.jct.2009.06.011).

The nature of the data set: activity coefficient (dimensionless); of the first substance listed, at infinite dilution; xn = mol fraction of the nth substance listed. As to conditions: 101 kPa, Liquid, Chromatography, x1 = 0.

± gives the expanded uncertainty stated by the source.

With `C=CCCC` [1-pentene] + CCCC[n+]1ccc(C)cc1.O=S(=O)([N-]S(=O)(=O)C(F)(F)F)C(F)(F)F, the activity coefficient (298.15 K) worked out at 5.81 ± 0.4; the activity coefficient (308.15 K) was found to be 5.6 ± 0.38; the activity coefficient (318.15 K) was found to be 5.42 ± 0.37; the activity coefficient (328.15 K) turned out to be 5.24 ± 0.36; the activity coefficient (338.15 K) amounted to 5.07 ± 0.35; the activity coefficient (348.15 K) came out at 4.93 ± 0.34. Moreover, the activity coefficient was 4.8 ± 0.33 (358.15 K) and 4.68 ± 0.32 (368.15 K).
As for `C1CCCCCC1` [cycloheptane] + CCCC[n+]1ccc(C)cc1.O=S(=O)([N-]S(=O)(=O)C(F)(F)F)C(F)(F)F, the activity coefficient runs as follows: (298.15 K) 10.9 ± 0.7; (308.15 K) 10.1 ± 0.7; (318.15 K) 9.45 ± 0.64; (328.15 K) 8.9 ± 0.61; (338.15 K) 8.39 ± 0.57; (348.15 K) 7.9 ± 0.54. For the same compound, the activity coefficient reads like this: (358.15 K) 7.46 ± 0.51; (368.15 K) 7.14 ± 0.49.
With `CCCCO` [butan-1-ol] + CCCC[n+]1ccc(C)cc1.O=S(=O)([N-]S(=O)(=O)C(F)(F)F)C(F)(F)F, the activity coefficient (318.15 K) was found to be 2.26 ± 0.15; the activity coefficient (328.15 K) came out at 2.05 ± 0.14; the activity coefficient (338.15 K) is 1.87 ± 0.13; the activity coefficient (348.15 K) came to 1.71 ± 0.11; the activity coefficient (358.15 K) was found to be 1.57 ± 0.1; the activity coefficient (368.15 K) came out at 1.46 ± 0.1.
Consider `C1CCCCC1` [cyclohexane] + CCCC[n+]1ccc(C)cc1.O=S(=O)([N-]S(=O)(=O)C(F)(F)F)C(F)(F)F, for which the activity coefficient is, setting by setting: (298.15 K) 8.93 ± 0.61; (308.15 K) 8.34 ± 0.57; (318.15 K) 7.76 ± 0.53; (328.15 K) 7.31 ± 0.5; (338.15 K) 6.96 ± 0.47; (348.15 K) 6.54 ± 0.45. Further, the activity coefficient came to 6.23 ± 0.42 (358.15 K) and 5.94 ± 0.4 (368.15 K).
Regarding `C#CCCCCCC` [1-octyne] + CCCC[n+]1ccc(C)cc1.O=S(=O)([N-]S(=O)(=O)C(F)(F)F)C(F)(F)F, the activity coefficient came out at 4.43 ± 0.3 (298.15 K); 4.42 ± 0.3 (308.15 K); 4.4 ± 0.3 (318.15 K); 4.38 ± 0.3 (328.15 K); 4.37 ± 0.3 (338.15 K); 4.36 ± 0.3 (348.15 K). The activity coefficient runs as follows: (358.15 K) 4.34 ± 0.3; (368.15 K) 4.33 ± 0.29.
Turning to `CCCCCCCCC` [nonane] + CCCC[n+]1ccc(C)cc1.O=S(=O)([N-]S(=O)(=O)C(F)(F)F)C(F)(F)F, the activity coefficient runs as follows: (298.15 K) 38.9 ± 2.7; (308.15 K) 35.5 ± 2.4; (318.15 K) 32.3 ± 2.2; (328.15 K) 29.8 ± 2; (338.15 K) 27.6 ± 1.9; (348.15 K) 25.6 ± 1.8. The activity coefficient was determined as 23.8 ± 1.6 (358.15 K) and 22 ± 1.5 (368.15 K).
As for `CCOCC` [diethyl ether] + CCCC[n+]1ccc(C)cc1.O=S(=O)([N-]S(=O)(=O)C(F)(F)F)C(F)(F)F, the activity coefficient reads like this: (298.15 K) 2.07 ± 0.14; (308.15 K) 2.08 ± 0.14; (318.15 K) 2.08 ± 0.14; (328.15 K) 2.08 ± 0.14; (338.15 K) 2.08 ± 0.14; (348.15 K) 2.09 ± 0.14. The activity coefficient is, setting by setting: (358.15 K) 2.09 ± 0.14; (368.15 K) 2.09 ± 0.14.
On to `C#CCCCC` [1-hexyne] + CCCC[n+]1ccc(C)cc1.O=S(=O)([N-]S(=O)(=O)C(F)(F)F)C(F)(F)F, for which the activity coefficient was 2.37 ± 0.16 (298.15 K); 2.39 ± 0.16 (308.15 K); 2.42 ± 0.16 (318.15 K); 2.44 ± 0.17 (328.15 K); 2.46 ± 0.17 (338.15 K); 2.48 ± 0.17 (348.15 K). Further, the activity coefficient (358.15 K) was 2.5 ± 0.17 and the activity coefficient (368.15 K) stood at 2.52 ± 0.17.
With `CCCCC` [pentane] + CCCC[n+]1ccc(C)cc1.O=S(=O)([N-]S(=O)(=O)C(F)(F)F)C(F)(F)F, the activity coefficient is 12.9 ± 0.9 (298.15 K); 12 ± 0.8 (308.15 K); 11.2 ± 0.8 (318.15 K); 10.5 ± 0.7 (328.15 K); 9.89 ± 0.67 (338.15 K); 9.37 ± 0.64 (348.15 K). In addition, the activity coefficient reads like this: (358.15 K) 8.88 ± 0.61; (368.15 K) 8.47 ± 0.58.
In the case of `C#CCCCCC` [1-heptyne] + CCCC[n+]1ccc(C)cc1.O=S(=O)([N-]S(=O)(=O)C(F)(F)F)C(F)(F)F, the activity coefficient stood at 3.2 ± 0.22 (298.15 K); 3.23 ± 0.22 (308.15 K); 3.24 ± 0.22 (318.15 K); 3.26 ± 0.22 (328.15 K); 3.27 ± 0.22 (338.15 K); 3.28 ± 0.22 (348.15 K). For the same compound, the activity coefficient (358.15 K) stood at 3.29 ± 0.22 and the activity coefficient (368.15 K) came to 3.3 ± 0.22.
With `C1CCCCCCC1` [cyclooctane] + CCCC[n+]1ccc(C)cc1.O=S(=O)([N-]S(=O)(=O)C(F)(F)F)C(F)(F)F, the activity coefficient runs as follows: (298.15 K) 13.9 ± 1; (308.15 K) 12.9 ± 0.9; (318.15 K) 12 ± 0.8; (328.15 K) 11.2 ± 0.8; (338.15 K) 10.4 ± 0.7; (348.15 K) 9.81 ± 0.67. Besides, the activity coefficient is, setting by setting: (358.15 K) 9.26 ± 0.63; (368.15 K) 8.74 ± 0.6.
With `Cc1cccc(C)c1` [1,3-dimethylbenzene] + CCCC[n+]1ccc(C)cc1.O=S(=O)([N-]S(=O)(=O)C(F)(F)F)C(F)(F)F, the activity coefficient was found to be 1.35 ± 0.09 (318.15 K); 1.38 ± 0.09 (328.15 K); 1.42 ± 0.09 (338.15 K); 1.45 ± 0.1 (348.15 K); 1.48 ± 0.1 (358.15 K); 1.51 ± 0.1 (368.15 K).
For `CCO` [ethanol] + CCCC[n+]1ccc(C)cc1.O=S(=O)([N-]S(=O)(=O)C(F)(F)F)C(F)(F)F, the activity coefficient reads like this: (298.15 K) 1.91 ± 0.13; (308.15 K) 1.72 ± 0.12; (318.15 K) 1.56 ± 0.1; (328.15 K) 1.43 ± 0.09; (338.15 K) 1.31 ± 0.09; (348.15 K) 1.21 ± 0.08. For the same compound, the activity coefficient was 1.12 ± 0.07 (358.15 K) and 1.04 ± 0.07 (368.15 K).
Turning to `CCCCCCC` [heptane] + CCCC[n+]1ccc(C)cc1.O=S(=O)([N-]S(=O)(=O)C(F)(F)F)C(F)(F)F, the activity coefficient runs as follows: (298.15 K) 20.4 ± 1.4; (308.15 K) 18.9 ± 1.3; (318.15 K) 17.7 ± 1.2; (328.15 K) 16.6 ± 1.1; (338.15 K) 15.6 ± 1.1; (348.15 K) 14.7 ± 1. Further, the activity coefficient reads like this: (358.15 K) 13.9 ± 1; (368.15 K) 13.2 ± 0.9.
Consider `CCCCCCCC` [octane] + CCCC[n+]1ccc(C)cc1.O=S(=O)([N-]S(=O)(=O)C(F)(F)F)C(F)(F)F, for which the activity coefficient reads like this: (298.15 K) 27.9 ± 1.9; (308.15 K) 25.8 ± 1.8; (318.15 K) 23.7 ± 1.6; (328.15 K) 22.1 ± 1.5; (338.15 K) 20.7 ± 1.4; (348.15 K) 19.3 ± 1.3. The activity coefficient by setting is: (358.15 K) 18.1 ± 1.2; (368.15 K) 17.2 ± 1.2.
For `CCCO` [propan-1-ol] + CCCC[n+]1ccc(C)cc1.O=S(=O)([N-]S(=O)(=O)C(F)(F)F)C(F)(F)F, the activity coefficient runs as follows: (298.15 K) 2.28 ± 0.16; (308.15 K) 2.04 ± 0.14; (318.15 K) 1.84 ± 0.12; (328.15 K) 1.67 ± 0.11; (338.15 K) 1.53 ± 0.1; (348.15 K) 1.41 ± 0.09. The activity coefficient is, setting by setting: (358.15 K) 1.3 ± 0.08; (368.15 K) 1.2 ± 0.08.
`c1ccsc1` [thiophene] + CCCC[n+]1ccc(C)cc1.O=S(=O)([N-]S(=O)(=O)C(F)(F)F)C(F)(F)F: the activity coefficient was found to be 0.609 ± 0.043 (298.15 K); 0.624 ± 0.043 (308.15 K); 0.637 ± 0.044 (318.15 K); 0.649 ± 0.044 (328.15 K); 0.661 ± 0.045 (338.15 K); 0.672 ± 0.046 (348.15 K). For the same compound, the activity coefficient (358.15 K) was determined as 0.683 ± 0.046 and the activity coefficient (368.15 K) was determined as 0.694 ± 0.047.
As to `CCc1ccccc1` [ethylbenzene] + CCCC[n+]1ccc(C)cc1.O=S(=O)([N-]S(=O)(=O)C(F)(F)F)C(F)(F)F, the activity coefficient (318.15 K) was found to be 1.45 ± 0.1; the activity coefficient (328.15 K) turned out to be 1.48 ± 0.1; the activity coefficient (338.15 K) stood at 1.5 ± 0.1; the activity coefficient (348.15 K) was 1.52 ± 0.1; the activity coefficient (358.15 K) was determined as 1.54 ± 0.1; the activity coefficient (368.15 K) was 1.56 ± 0.1.
As for `c1ccccc1` [benzene] + CCCC[n+]1ccc(C)cc1.O=S(=O)([N-]S(=O)(=O)C(F)(F)F)C(F)(F)F, the activity coefficient is 0.683 ± 0.046 (298.15 K); 0.702 ± 0.047 (308.15 K); 0.719 ± 0.048 (318.15 K); 0.735 ± 0.049 (328.15 K); 0.75 ± 0.049 (338.15 K); 0.767 ± 0.05 (348.15 K). The activity coefficient is, setting by setting: (358.15 K) 0.781 ± 0.051; (368.15 K) 0.795 ± 0.052.
With `Cc1ccccc1C` [1,2-dimethylbenzene] + CCCC[n+]1ccc(C)cc1.O=S(=O)([N-]S(=O)(=O)C(F)(F)F)C(F)(F)F, the activity coefficient is 1.21 ± 0.08 (318.15 K); 1.24 ± 0.08 (328.15 K); 1.27 ± 0.08 (338.15 K); 1.3 ± 0.08 (348.15 K); 1.32 ± 0.09 (358.15 K); 1.35 ± 0.09 (368.15 K).
For the compound `O` [water] + CCCC[n+]1ccc(C)cc1.O=S(=O)([N-]S(=O)(=O)C(F)(F)F)C(F)(F)F, the activity coefficient is, setting by setting: (298.15 K) 4.86 ± 0.33; (308.15 K) 4.2 ± 0.29; (318.15 K) 3.65 ± 0.25; (328.15 K) 3.21 ± 0.22; (338.15 K) 2.85 ± 0.19; (348.15 K) 2.54 ± 0.17. Besides, the activity coefficient (358.15 K) worked out at 2.26 ± 0.15 and the activity coefficient (368.15 K) came to 2.05 ± 0.14.
